The nature of one data set: Kinetic solubility. As to conditions: kinetic from dmso stock. The text has this: All chemicals and solvents were sourced from commercial suppliers. Buffers were made up using purified water from a MilliQ® water purification system. Biorelevant buffers (FESSIF, FASSIF and FASSGF) were purchased from Biorelevant and made up according to manufacturer's instructions. 15% FBS (heat inactivated, South American origin, ThermoFisher scientific) in PBS (Fisher Scientific) was filter sterilised (0.22 μm Fisherbrand™ Sterile PES Syringe Filter, Fisher Scientific) before use. Sodium taurocholate was purchased from Merck.
λmax was determined for each compound from the UV-Vis absorption spectrum of a 200 LIM compound solution in buffer of interest using a Varian Cary® 100 UV-Vis Spectrophotometer. A calibration curve of λmax VS concentration was obtained by serial dilution of compound from 200 μM in the buffer of interest, correcting for background buffer absorption. For each sample, a DMSO solution of compound was incubated in buffer of interest (<5% DMSO) for 2 hrs at RT. The solution was filtered (0.22 μm Fisherbrand™ Sterile PES Syringe Filter, Fisher Scientific) or centrifuged (14,500 rpm, 10 min) to remove undissolved debris and the supernatant was removed and diluted as required. The corrected UV absorption of the supernatant at Amax Was measured using a Varian Cary® 100 UV-Vis Spectrophotometer and compared to the calibration curve to determine compound solubility.

For data set [1], the system named is L. donovani promastigotes. Description: L. donovani promastigote dose response assay (resazurin). In kind it is cell-based. As to conditions: promastigotes, 72 hrs at 26° C., resazurin, read-out: EC50 (L. don)/μM. For orientation: The colour change of resazurin is a common sign of viable cells or microbes.
The test system of the next data set is L. major promastigotes. The experiment in a line: L. major promastigote dose response assay (alamarBlue/resazurin). The class given is cell-based. As to conditions: 44 hrs + 4 hrs alamarBlue/resazurin, 26° C. On the procedure:
Using a standard alamarBlue™ assay, activity and selectivity were assessed using L. major promastigotes and HepG2 cells, respectively.
All parasite and human cell cultures were grown and manipulated following biosafety level 2 instructions under sterile conditions. L. major FV1, L. amazonensis (MHOM/Br/75/JOSEFA), L. donovani BOB (derived from MHOM/SD/62/1S-CL2D), T. brucei (90-13, 427 strain) and T. cruzi (Dm28c) were used throughout.
All steps were carried out under sterile conditions. Frozen stocks of the relevant Leishmania promastigote species were thawed rapidly and added to Schneider's media. Promastigotes were grown at 26° C. in Nunc EasYFlask 25 cm^2 Nunclon Delta Surface (ThermoScientific) and frozen stocks were prepared on low passage cultures (p2-4) by pelleting the cells by centrifugation and resuspending in Schneider's media with 10% DMSO. The cultures were aliquoted into cryovials (Starlab) and cooled slowly to −150° C. for long term storage.
All steps were carried out under sterile conditions. […] Cycloheximide or amphotericin B were used as positive controls and 2% DMSO was used as a negative control. alamarBlue® (ThermoFisher scientific) or resazurin solution was added to each well and incubated for a further 4 hrs at 26° C. Cell-viability was determined using a BioTek™ FLx800 microplate reader with Gen5® 1.08 data analysis software (BioTek) by monitoring fluorescence emission (λex 560/λem 590 nm). Dose response curves were fitted using sigmoidal regression analysis (GraphPad Prism 8 software) and used to calculate EC50 values.

In data set [2] the test system is L. amazonensis promastigotes. Description: L. amazonensis promastigote dose response assay (alamarBlue/resazurin). In kind it is cell-based. As to conditions: 44 hrs + 4 hrs alamarBlue/resazurin, 26° C., read-out: EC50 (L. amaz)/μM.
The subject of data set [3] is T. brucei bloodstream trypomastigotes. The experiment in a line: T. brucei bloodstream trypomastigote dose response assay. The class given is cell-based. As to conditions: Trypanosoma brucei; bloodstream trypomastigotes, 48 hrs, CellTiter Blue; read-out: EC50 (T. brucei)/μM.
The test system of a further data set is T. cruzi epimastigotes. The experiment in a line: T. cruzi epimastigote dose response assay. The class given is cell-based. As to conditions: Trypanosoma cruzi; epimastigotes, 72 hours at 28° C., counted; read-out: EC50 (T. cruzi)/μM.
Another data set concerns S. aureus (FDA209P). Description: Antibacterial MIC/growth assay, S. aureus. In kind it is cell-based. As to conditions: 16 hours at 37° C., absorbance 600 nm. On the procedure: DMSO was used as a solvent control at a maximum final concentration of 10% (a greater percentage than would be achieved using the compounds at the concentrations in question). Plates were incubated at 37° C. with shaking for 16 hours before measuring absorbance at 600 nm. These values were then used to calculate percentage growth at each dilution of compound in comparison to growth in the absence of compound. The following day, the contents of each well were resuspended using a multichannel pipette, and 5 μl from each well was then applied to LB agar plates. These were incubated at 30° C. in a stationary incubator for 16 hours before imaging.

Details of data set [4]: species or system swiss albino mice. As to conditions: mouse, in vivo. The method, then:
DMPK studies were performed by GVK BIO Sciences Pvt Ltd Hyderabad, India, in collaboration with LifeArc. Three swiss albino mice per experiment were inoculated (IP or oral) with compound at 10 mg kg^−1 in 10% DMSO (2 mg mL^−1) on day 1. A small blood sample (50 μL) was taken after 15 minutes, 30 minutes, 1 hr, 2 hr, 4 hr, 6 hr, 8 hr and 24 hr. Proteins were precipitated in acetonitrile and the supernatant was diluted in 1:1 methanol:water and subject to LCMS analysis. The concentration of compound in the blood was determined by comparing the peak area to a calibration curve.

≈ marks a conversion by molar mass, not a printed value. Like-named read-outs stand apart in the source and are kept apart here.

The solubility is the concentration that dissolves in the medium under given conditions. `CNC(=O)c1ccc(OCCN2CCOCC2)cc1NC(=O)c1ccc([N+](=O)[O-])s1` [Compound 52, N-[2-(methylcarbamoyl)-5-[2″-(morpholin-4″-yl)ethoxy]phenyl]-5′-nitrothiophene-2′-carboxamide]: the solubility at 2 h in the data set “Kinetic solubility” (FASSGF, fassgf or other biorelevant) is > 8000 µM; in the data set “Kinetic solubility” (FASSIF), 148 µM (≈ 64.3 µg/mL); in “Kinetic solubility” (FESSIF), 1870 µM (≈ 812 µg/mL); in the data set “Kinetic solubility” (PBS, aqueous buffer) it was 19.3 µM (≈ 8.39 µg/mL). Besides, the EC50 in data set [1] (Leishmania donovani) amounted to 0.134 µM; in the data set on L. major promastigotes (Leishmania major, 48 h) it was 0.44 µM; in data set [2] (Leishmania amazonensis, 48 h), 0.27 µM; in data set [3], 0.78 ± 0.4 µM; with T. cruzi epimastigotes, 13 ± 1 µM.

Take `CNC(=O)c1ccc(OCCC2CCOCC2)cc1NC(=O)c1ccc([N+](=O)[O-])s1` [Compound 54, N-[2-(methylcarbamoyl)-5-[2″-(oxan-4″-yl)ethoxy]phenyl]-5′-nitrothiophene-2′-carboxamide]: the solubility at 2 h in the data set “Kinetic solubility” (FESSIF) was determined as 47 µM (≈ 20.4 µg/mL); in the data set “Kinetic solubility” (PBS, aqueous buffer), 3.7 µM (≈ 1.6 µg/mL). Also, the EC50 in data set [1] (Leishmania donovani) amounted to 0.34 µM; in the data set on L. major promastigotes (Leishmania major, 48 h), 0.33 µM; in data set [2] (Leishmania amazonensis, 48 h), 0.46 µM. Moreover, the “inhibition of growth of S. aureus” value in the data set with S. aureus (FDA209P) is reported as “effective at inhibiting the bacteria at low concentrations”.

With “Ethyl 2-(5′-nitrothiophene-2′-amido)thiophene-3-carboxylate [Compound 4]”, the EC50 with L. major promastigotes came out at 0.93 µM; in data set [2], 1.85 µM. In addition, in data set [4], the pharmacokinetic profile result was “poor pharmacokinetic profiles”.

On to “Methyl 2-(5′-nitrothiophene-2′-amido)thiophene-3-carboxylate [Compound 3]”, for which the EC50 in data set [1] worked out at 0.3 µM; in the data set on L. major promastigotes it was 0.59 µM; in data set [2], 0.91 µM. Besides, the pharmacokinetic profile result in data set [4] is on record as “poor pharmacokinetic profiles”.

Consider “N-(3-carbamoylthiophen-2-yl)-5′-nitrothiophene-2′-carboxamide [Compound 1]”, for which the EC50 in data set [1] was determined as 0.004 µM; with L. major promastigotes it was 0.52 µM; in data set [2], 0.042 µM. Moreover, the pharmacokinetic profile result in data set [4] was “poor pharmacokinetic profiles”.

“N-methyl-2-(5′-nitrothiophene-2′-amido)thiophene-3-carboxamide [Compound 2]”: the EC50 was determined as 0.033 µM in data set [1], 0.99 µM in the data set with L. major promastigotes and 0.29 µM in data set [2]. The pharmacokinetic profile entry in data set [4] was “poor pharmacokinetic profiles”.

These data come from patent US20260125356A1, “TREATMENT OF LEISHMANIASIS” (THE UNIVERSITY OF DURHAM, priority 2022, published 2026).
